Measured values published in ChEMBL document CHEMBL2331477, “Effect of helical conformation and side chain structure on γ-secretase inhibition by β-peptide foldamers: insight into substrate recognition” (J Med Chem, 2013).
Activity calls are given as the source filed them. The rule behind the calls is not given here.

Key:
[1] = target: T1, Gamma-secretase (Homo sapiens) (UniProt Q96BI3+Q9NZ42+Q8WW43+P49768+Q92542+P49810); assay: Inhibition of gamma-secretase (unknown origin) expressed in N2a NL/N cells coexpressing betaAPPNL and NotchdeltaE assessed as Abeta40 secretion at 100 nM by ELISA; assay type: cell-based
[2] = target: T1, Gamma-secretase (Homo sapiens); assay: Inhibition of gamma-secretase (unknown origin) expressed in N2a NL/N cells coexpressing betaAPPNL and NotchdeltaE assessed as Abeta42 secretion at 100 nM by ELISA; assay type: cell-based

inhibition [1] | inhibition [2] | Structure (SMILES)
inactive | inactive | CC(=O)N[C@H]1CCC[C@@H]1C(=O)N[C@H]1CCC[C@@H]1C(=O)N[C@H]1CCC[C@@H]1C(=O)N[C@H]1CCC[C@@H]1C(=O)N[C@H]1CCC[C@@H]1C(=O)N[C@H](CO)CC(=O)N[C@H]1CCC[C@@H]1C(=O)N[C@H]1CCC[C@@H]1C(=O)N[C@H]1CCC[C@@H]1C(=O)N[C@H]1CCC[C@@H]1C(=O)N[C@H]1CCC[C@@H]1C(=O)N[C@H]1CCC[C@@H]1C(N)=O
Active | Active | CC(=O)N[C@H]1CCC[C@@H]1C(=O)N[C@H]1CCC[C@@H]1C(=O)N[C@H]1COC[C@@H]1C(=O)N[C@H]1CCC[C@@H]1C(=O)N[C@H]1CCC[C@@H]1C(=O)N[C@H]1CCC[C@@H]1C(=O)N[C@H]1CCC[C@@H]1C(=O)N[C@H]1CCC[C@@H]1C(=O)N[C@H]1CCC[C@@H]1C(=O)N[C@H]1CCC[C@@H]1C(=O)N[C@H]1CCC[C@@H]1C(=O)N[C@H]1CCC[C@@H]1C(N)=O
Active | Active | CC(=O)N[C@H]1CCC[C@@H]1C(=O)N[C@H]1CCC[C@@H]1C(=O)N[C@@H](C)CC(=O)N[C@H]1CCC[C@@H]1C(=O)N[C@H]1CCC[C@@H]1C(=O)N[C@H]1CCC[C@@H]1C(=O)N[C@H]1CCC[C@@H]1C(=O)N[C@H]1CCC[C@@H]1C(=O)N[C@H]1CCC[C@@H]1C(=O)N[C@H]1CCC[C@@H]1C(=O)N[C@H]1CCC[C@@H]1C(=O)N[C@H]1CCC[C@@H]1C(N)=O
inactive | inactive | CC(=O)N[C@H]1CCC[C@@H]1C(=O)N[C@H]1CCC[C@@H]1C(=O)N[C@H]1CCC[C@@H]1C(=O)N[C@H]1CCC[C@@H]1C(=O)N[C@H]1CCC[C@@H]1C(=O)N[C@@H](CC(=O)N[C@H]1CCC[C@@H]1C(=O)N[C@H]1CCC[C@@H]1C(=O)N[C@H]1CCC[C@@H]1C(=O)N[C@H]1CCC[C@@H]1C(=O)N[C@H]1CCC[C@@H]1C(=O)N[C@H]1CCC[C@@H]1C(N)=O)[C@@H](C)O
inactive | inactive | CC(=O)N[C@H]1CCC[C@@H]1C(=O)N[C@H]1CCC[C@@H]1C(=O)N[C@H]1CCC[C@@H]1C(=O)N[C@H]1CCC[C@@H]1C(=O)N[C@H]1CCC[C@@H]1C(=O)N[C@H]1CCC[C@@H]1C(=O)N[C@H]1CCC[C@@H]1C(=O)N[C@H]1CCC[C@@H]1C(=O)N[C@@H](CC(=O)N[C@H]1CCC[C@@H]1C(=O)N[C@H]1CCC[C@@H]1C(=O)N[C@H]1CCC[C@@H]1C(N)=O)[C@@H](C)O
Active | Active | CC(=O)N[C@H]1CCC[C@@H]1C(=O)N[C@H]1CCC[C@@H]1C(=O)N[C@@H](CS)CC(=O)N[C@H]1CCC[C@@H]1C(=O)N[C@H]1CCC[C@@H]1C(=O)N[C@H]1CCC[C@@H]1C(=O)N[C@H]1CCC[C@@H]1C(=O)N[C@H]1CCC[C@@H]1C(=O)N[C@H]1CCC[C@@H]1C(=O)N[C@H]1CCC[C@@H]1C(=O)N[C@H]1CCC[C@@H]1C(=O)N[C@H]1CCC[C@@H]1C(N)=O
inactive | inactive | CC(=O)N[C@H]1CCC[C@@H]1C(=O)N[C@H]1CCC[C@@H]1C(=O)N[C@H]1CCC[C@@H]1C(=O)N[C@H]1CCC[C@@H]1C(=O)N[C@H]1CCC[C@@H]1C(=O)N[C@H]1CCC[C@@H]1C(=O)N[C@H]1CCC[C@@H]1C(=O)N[C@H]1CCC[C@@H]1C(=O)N[C@@H](CC(N)=O)CC(=O)N[C@H]1CCC[C@@H]1C(=O)N[C@H]1CCC[C@@H]1C(=O)N[C@H]1CCC[C@@H]1C(N)=O
inactive | inactive | CC(=O)N[C@H]1CCC[C@@H]1C(=O)N[C@H]1CCC[C@@H]1C(=O)N[C@H]1CCC[C@@H]1C(=O)N[C@H]1CCC[C@@H]1C(=O)N[C@H]1CCC[C@@H]1C(=O)N[C@H]1CCC[C@@H]1C(=O)N[C@H]1CCC[C@@H]1C(=O)N[C@H]1CCC[C@@H]1C(=O)NC(CO)CC(=O)N[C@H]1CCC[C@@H]1C(=O)N[C@H]1CCC[C@@H]1C(=O)N[C@H]1CCC[C@@H]1C(N)=O (single isomer, unassigned)
inactive | inactive | CC(=O)N[C@H]1CCC[C@@H]1C(=O)N[C@H]1CCC[C@@H]1C(=O)N[C@H]1CCC[C@@H]1C(=O)N[C@H]1CCC[C@@H]1C(=O)N[C@H]1CCC[C@@H]1C(=O)N[C@H](CC(=O)N[C@H]1CCC[C@@H]1C(=O)N[C@H]1CCC[C@@H]1C(=O)N[C@H]1CCC[C@@H]1C(=O)N[C@H]1CCC[C@@H]1C(=O)N[C@H]1CCC[C@@H]1C(=O)N[C@H]1CCC[C@@H]1C(N)=O)CC(C)C
inactive | inactive | CC(=O)N[C@H]1CCC[C@@H]1C(=O)N[C@H]1CCC[C@@H]1C(=O)N[C@H]1CCC[C@@H]1C(=O)N[C@H]1CCC[C@@H]1C(=O)N[C@H]1CCC[C@@H]1C(=O)N[C@H]1CCC[C@@H]1C(=O)N[C@H]1CCC[C@@H]1C(=O)N[C@H]1CCC[C@@H]1C(=O)N[C@H](CC(=O)N[C@H]1CCC[C@@H]1C(=O)N[C@H]1CCC[C@@H]1C(=O)N[C@H]1CCC[C@@H]1C(N)=O)CC(C)C

Second part, the compound before the results:

Structure (SMILES) | inhibition [1] | inhibition [2]
CC(=O)N[C@H]1CCC[C@@H]1C(=O)N[C@H]1CCC[C@@H]1C(=O)N[C@H]1CCC[C@@H]1C(=O)N[C@H]1CCC[C@@H]1C(=O)N[C@H]1CCC[C@@H]1C(=O)N[C@@H](CCC(=O)O)CC(=O)N[C@H]1CCC[C@@H]1C(=O)N[C@H]1CCC[C@@H]1C(=O)N[C@H]1CCC[C@@H]1C(=O)N[C@H]1CCC[C@@H]1C(=O)N[C@H]1CCC[C@@H]1C(=O)N[C@H]1CCC[C@@H]1C(N)=O | inactive | inactive
CC(=O)N[C@H]1CCC[C@@H]1C(=O)N[C@H]1CCC[C@@H]1C(=O)N[C@H]1CCC[C@@H]1C(=O)N[C@H]1CCC[C@@H]1C(=O)N[C@H]1CCC[C@@H]1C(=O)N[C@@H](CCCCN)CC(=O)N[C@H]1CCC[C@@H]1C(=O)N[C@H]1CCC[C@@H]1C(=O)N[C@H]1CCC[C@@H]1C(=O)N[C@H]1CCC[C@@H]1C(=O)N[C@H]1CCC[C@@H]1C(=O)N[C@H]1CCC[C@@H]1C(N)=O | inactive | inactive
CC(=O)N[C@H]1CCC[C@@H]1C(=O)N[C@H]1CCC[C@@H]1C(=O)N[C@H](CC(=O)N[C@H]1CCC[C@@H]1C(=O)N[C@H]1CCC[C@@H]1C(=O)N[C@H]1CCC[C@@H]1C(=O)N[C@H]1CCC[C@@H]1C(=O)N[C@H]1CCC[C@@H]1C(=O)N[C@H]1CCC[C@@H]1C(=O)N[C@H]1CCC[C@@H]1C(=O)N[C@H]1CCC[C@@H]1C(=O)N[C@H]1CCC[C@@H]1C(N)=O)CC(C)C | Active | Active
CC(=O)N[C@H]1CCC[C@@H]1C(=O)N[C@H]1CCC[C@@H]1C(=O)N[C@H]1CCC[C@@H]1C(=O)N[C@H]1CCC[C@@H]1C(=O)N[C@H]1CCC[C@@H]1C(=O)N[C@@H](CCC(N)=O)CC(=O)N[C@H]1CCC[C@@H]1C(=O)N[C@H]1CCC[C@@H]1C(=O)N[C@H]1CCC[C@@H]1C(=O)N[C@H]1CCC[C@@H]1C(=O)N[C@H]1CCC[C@@H]1C(=O)N[C@H]1CCC[C@@H]1C(N)=O | inactive | inactive
CC(=O)N[C@H]1CCC[C@@H]1C(=O)N[C@H]1CCC[C@@H]1C(=O)N[C@H]1CCC[C@@H]1C(=O)N[C@H]1CCC[C@@H]1C(=O)N[C@H]1CCC[C@@H]1C(=O)N[C@@H](CC(N)=O)CC(=O)N[C@H]1CCC[C@@H]1C(=O)N[C@H]1CCC[C@@H]1C(=O)N[C@H]1CCC[C@@H]1C(=O)N[C@H]1CCC[C@@H]1C(=O)N[C@H]1CCC[C@@H]1C(=O)N[C@H]1CCC[C@@H]1C(N)=O | inactive | inactive
CC(=O)N[C@H]1CCC[C@@H]1C(=O)N[C@H]1CCC[C@@H]1C(=O)N[C@H](CC(=O)N[C@H]1CCC[C@@H]1C(=O)N[C@H]1CCC[C@@H]1C(=O)N[C@H]1CCC[C@@H]1C(=O)N[C@H]1CCC[C@@H]1C(=O)N[C@H]1CCC[C@@H]1C(=O)N[C@H]1CCC[C@@H]1C(=O)N[C@H]1CCC[C@@H]1C(=O)N[C@H]1CCC[C@@H]1C(=O)N[C@H]1CCC[C@@H]1C(N)=O)Cc1ccc(O)cc1 | inactive | inactive
CC(=O)N[C@H]1CCC[C@@H]1C(=O)N[C@H]1CCC[C@@H]1C(=O)N[C@@H](CCCCN)CC(=O)N[C@H]1CCC[C@@H]1C(=O)N[C@H]1CCC[C@@H]1C(=O)N[C@H]1CCC[C@@H]1C(=O)N[C@H]1CCC[C@@H]1C(=O)N[C@H]1CCC[C@@H]1C(=O)N[C@H]1CCC[C@@H]1C(=O)N[C@H]1CCC[C@@H]1C(=O)N[C@H]1CCC[C@@H]1C(=O)N[C@H]1CCC[C@@H]1C(N)=O | Active | Active
CC(=O)N[C@H]1CCC[C@@H]1C(=O)N[C@H]1CCC[C@@H]1C(=O)N[C@H]1CCC[C@@H]1C(=O)N[C@H]1CCC[C@@H]1C(=O)N[C@H]1CCC[C@@H]1C(=O)N[C@H]1CCC[C@@H]1C(=O)N[C@H]1CCC[C@@H]1C(=O)N[C@H]1CCC[C@@H]1C(=O)N[C@@H](CCC(N)=O)CC(=O)N[C@H]1CCC[C@@H]1C(=O)N[C@H]1CCC[C@@H]1C(=O)N[C@H]1CCC[C@@H]1C(N)=O | inactive | inactive
CC(=O)N[C@H]1CCC[C@@H]1C(=O)N[C@H]1CCC[C@@H]1C(=O)N[C@@H](CCC(N)=O)CC(=O)N[C@H]1CCC[C@@H]1C(=O)N[C@H]1CCC[C@@H]1C(=O)N[C@H]1CCC[C@@H]1C(=O)N[C@H]1CCC[C@@H]1C(=O)N[C@H]1CCC[C@@H]1C(=O)N[C@H]1CCC[C@@H]1C(=O)N[C@H]1CCC[C@@H]1C(=O)N[C@H]1CCC[C@@H]1C(=O)N[C@H]1CCC[C@@H]1C(N)=O | Active | Active
CC(=O)N[C@H]1CCC[C@@H]1C(=O)N[C@H]1CCC[C@@H]1C(=O)N[C@@H](CCC(=O)O)CC(=O)N[C@H]1CCC[C@@H]1C(=O)N[C@H]1CCC[C@@H]1C(=O)N[C@H]1CCC[C@@H]1C(=O)N[C@H]1CCC[C@@H]1C(=O)N[C@H]1CCC[C@@H]1C(=O)N[C@H]1CCC[C@@H]1C(=O)N[C@H]1CCC[C@@H]1C(=O)N[C@H]1CCC[C@@H]1C(=O)N[C@H]1CCC[C@@H]1C(N)=O | Active | Active
CC(=O)N[C@H]1CCC[C@@H]1C(=O)N[C@H]1CCC[C@@H]1C(=O)N[C@H]1CCC[C@@H]1C(=O)N[C@H]1CCC[C@@H]1C(=O)N[C@H]1CCC[C@@H]1C(=O)N[C@H](CC(=O)N[C@H]1CCC[C@@H]1C(=O)N[C@H]1CCC[C@@H]1C(=O)N[C@H]1CCC[C@@H]1C(=O)N[C@H]1CCC[C@@H]1C(=O)N[C@H]1CCC[C@@H]1C(=O)N[C@H]1CCC[C@@H]1C(N)=O)Cc1ccc(O)cc1 | inactive | inactive
